“Also recorded” adds a separate entry of the source. Like-named read-outs stand apart in the source and are kept apart here.
Assays:
MRSA USA300 (BAA-1680) [1] = assay: Growth kinetics (OD600) with bacitracin, alkyl gallates and combinations; assay type: cell-based, Staphylococcus aureus; settings: bacitracin 0.001 U to 100 U
Text: (§1) MRSA (ATCC 33593), MSSA (ATCC 29213), and MRSA USA300 (BAA-1680) strains were purchased from the American Type Culture Collection (ATCC; Manassas, Va.). Eight clinical isolates of MRSA were obtained from the Culture Collection of Antimicrobial Resistant Microbes, Korea National Research Resource Center (KNRRC). Salmonella enterica Typhimurium LT2 was purchased from ATCC, and Escherichia coli O157:H7 is a kind gift from Dr. Sangryeol Ryu (Seoul National University, South Korea). All S. aureus strains were maintained in Trypticase Soy (TS) medium, and E. coli O157:H7 and Salmonella were routinely grown aerobically on Luria-Bertani (LB) media at 37° C. For measuring growth kinetics, an overnight culture of MRSA in Mueller-Hinton (MH) broth was diluted 100-fold in fresh MH broth and cultured until early exponential phase. The culture (200 μl) was transferred to each well of a sterile 96-well plate and incubated at 37° C. with bacitracin alone, alkyl gallate alone, and combination of bacitracin/alkyl gallates at various concentrations. The optical density at 600 nm (OD600) was measured every hour with FLUOstar® Omega (BMG Labtech, Germany).

Escherichia coli O157:H7 = assay: microbe, parasite or virus in culture; assay type: cell-based; settings: for MBC / MIC: Escherichia coli
Text: as §1
(§2) Broth micro dilution assays were performed to determine the minimum inhibitory concentrations (MIC) accordance to the M7-A7 protocol of the Clinical and Laboratory Standards Institute (CLSI) guidelines^28. The susceptibility test was carried out with an initial bacterial inoculum of 1.5×10^5 CFU ml^−1. Alkyl gallates and bacitracin were serially diluted in a polystyrene 96 well plate and the plate was incubated at 37° C. for 24 h. Minimum bactericidal concentration (MBC) was determined by spotting 10 μl of cultures from MIC tests onto MH agar and incubated aerobically at 37° C.
(§3) MIC and MBC were measured as described above. MIC and MBC data are shown in Table 5 for both the Salmonella and the E. coli strain tested. The tested strains were highly resistant to bacitracin.

[2] = system: Salmonella enterica Typhimurium LT2; assay: MIC and MBC, alone and bacitracin/alkyl gallate combinations; assay type: cell-based; settings: for MBC / MIC: Salmonella enterica, S. Typhimurium, agent alone
Text: as §1, §2, §3

MRSA USA300 (BAA-1680) [3] = assay: microbe, parasite or virus in culture; assay type: cell-based, Staphylococcus aureus; set-up: MBC of bacitracin in combination with OG / fold reduction in bacitracin MBC: dose or concentration left out as unconfirmed; settings: for MBC of bacitracin in combination with alkyl gallate / fold decrease in bacitracin MBC: 5 μg ml^−1 alkyl gallate; for fold decrease in bacitracin MBC: versus bacitracin MBC 200 U; for bactericidal activity in combination with bacitracin: FIG. 2; for MBC / MIC: agent alone
Text: as §1, §2

MRSA 3865 = assay: microbe, parasite or virus in culture; assay type: cell-based, Staphylococcus aureus; settings: Staphylococcus aureus
Text: as §1, §2

MRSA 3823 = assay: microbe, parasite or virus in culture; assay type: cell-based, Staphylococcus aureus; settings: Staphylococcus aureus
Text: as §1, §2

MRSA 3903 = assay: microbe, parasite or virus in culture; assay type: cell-based, Staphylococcus aureus; settings: for MIC: Staphylococcus aureus
Text: as §1, §2

MRSA 3799 = assay: microbe, parasite or virus in culture; assay type: cell-based, Staphylococcus aureus; settings: for MIC: Staphylococcus aureus
Text: as §1, §2

MRSA 3095 = assay: microbe, parasite or virus in culture; assay type: cell-based, Staphylococcus aureus; settings: Staphylococcus aureus
Text: as §1, §2

MRSA 3A585 = assay: microbe, parasite or virus in culture; assay type: cell-based, Staphylococcus aureus; settings: Staphylococcus aureus
Text: as §1, §2

MRSA 3876 = assay: microbe, parasite or virus in culture; assay type: cell-based, Staphylococcus aureus; settings: Staphylococcus aureus
Text: as §1, §2

MRSA 3795 = assay: microbe, parasite or virus in culture; assay type: cell-based, Staphylococcus aureus; settings: Staphylococcus aureus
Text: as §1, §2

USA300 = assay: Bacterial membrane permeability (propidium iodide fluorescence); assay type: cell-based, Staphylococcus aureus
Method: Membrane permeability was determined by measuring fluorescence after exposure of USA300 to propidium iodide as described previously^29. Briefly, USA300 was grown in MH broth to the exponential phase and then diluted to OD600≈0.25. Propidium iodide was mixed with bacteria to a final concentration of 10 μM. […] Fluorescence was monitored at excitation and emission wavelengths of 585 nm and 620 nm, respectively, for 1 h using FLUOstar Omega® (BMG Labtech, Germany). The membrane permeability was calculated by subtracting fluorescence intensity of controls without treatment with phenolic compounds from that of treated samples. EDTA (1 mM) was used as a positive control.

[4] = system: human clinical isolates of MRSA with multidrug- and hyper-resistance; assay: Bactericidal activity of OG plus bacitracin against clinical isolates; assay type: cell-based, Staphylococcus aureus
Text: as §1, with “The culture (200 μl) was transferred to each well of a sterile 96-well plate and incubated at 37° C. with bacitracin alone, alkyl gallate alone, and combination of bacitracin/alkyl gallates at various concentrations.” left out
Broth micro dilution assays were performed to determine the minimum inhibitory concentrations (MIC) accordance to the M7-A7 protocol of the Clinical and Laboratory Standards Institute (CLSI) guidelines^28. […] Minimum bactericidal concentration (MBC) was determined by spotting 10 μl of cultures from MIC tests onto MH agar and incubated aerobically at 37° C. […]

MSSA (ATCC 29213) = assay: MIC (broth dilution) and MBC (spotting) of phenolic antioxidants and bacitracin; assay type: cell-based, Staphylococcus aureus; settings: for MIC: antioxidant alone
Text: as §1, §2
(§4) MICs were determined with MRSA and methicillin-sensitive S. aureus (MSSA) using a broth dilution method as described above.
(§5) MRSA and MSSA were cultured overnight with antioxidants (0.5 μg/ml) and bacitracin at various concentrations and 10 μL of the culture was spotted on MH agar plates and incubated aerobically at 37° C. to observe the bacterial viability. The results in FIGS. 9A, 9B, 9C and 9D (photographs of plates) show the Minimal Bactericidal Concentrations (MBCs) for indicated antioxidants. Bacitracin killed MRSA and MSSA at concentrations greater than or equal to 2 μg/mi.

[5] = system: MRSA (normal MRSA strain, not USA300); assay: MRSA growth (optical density) with bacitracin and phenolic antioxidants; assay type: cell-based, Staphylococcus aureus
Text: as §1
MRSA were grown with bacitracin (0.002 μg/mL) with antioxidant (as shown) at 0.5 μg/mL.
FIG. 7A is growth with no added bacitracin or lauryl gallate.
The optical density of MRSA was measured after 18 h culture with bacitracin (0.002 μg/ml) and antioxidants (as indicated at 0.5 μg/ml). Also measured were controls with no additions, with bacitracin alone and with antioxidant alone. FIGS. 8A, 8B, 8C and 8D are graphs illustrating the results.

MRSA (ATCC 33593) = assay: microbe, parasite or virus in culture; assay type: cell-based, Staphylococcus aureus; settings: MRSA; for MIC: antioxidant alone
Text: as §1, §2, §4, §5

MRSA USA300 = assay: Biofilm assay (crystal violet); assay type: cell-based, Staphylococcus aureus; settings: LG at different concentrations plus 10^−4 U bacitracin; 18 h; listed as LG
Method: Biofilm assays were performed as described previously^30. Briefly, overnight culture of MRSA was diluted 1:100 in TS broth and was grown in a 96-well microtiter plate in the presence or absence (a negative control) of combinations of bacitracin and lauryl gallate at different concentrations. After aerobic incubation at 37° C. for 18 h, biofilms were washed and stained with crystal violet. After washing unbound crystal violet, the absorbance at 630 nm was measured with FLUOstar Omega® (BMG Labtech).

[6] = Staphylococcus aureus, read-out: MIC
[7] = antioxidant 0.5 μg/ml, compared to bacitracin alone

For CCCCCCCCOC(=O)c1cc(O)c(O)c(O)c1 [Octyl gallate (OG), octyl gallate], the “growth inhibition by bacitracin in combination with alkyl gallate” value (MRSA USA300 (BAA-1680) [1]) was “completely inhibited the growth of USA300”, the “fold change in bacitracin MBC” value (Escherichia coli O157:H7; E. coli O157:H7, 5 μg ml^−1 OG) was > 1,000,000 fold and the MBC (Escherichia coli O157:H7) was 512 µg/mL. The MIC (Escherichia coli O157:H7) was 256 µg/mL, the MBC [2] was 512 µg/mL and the MIC [2] was 256 µg/mL. For the same compound, the “fold change in bacitracin MBC” value ([2]; Salmonella, 5 μg ml^−1 OG) was > 1,000,000 fold, the “MBC of bacitracin in combination with alkyl gallate” value (MRSA USA300 (BAA-1680) [3]) was 10^−3 U and the “fold decrease in bacitracin MBC” value (MRSA USA300 (BAA-1680) [3]) was 200,000 fold. The “bactericidal activity in combination with bacitracin” value (MRSA USA300 (BAA-1680) [3]) was “Most significant bactericidal activity”, the “MBC of bacitracin in combination with OG” value (MRSA USA300 (BAA-1680) [3]; OG) was 10^−4 U and the “fold reduction in bacitracin MBC” value (MRSA USA300 (BAA-1680) [3]; OG) was 2,000,000 fold. It also gave an MBC (MRSA USA300 (BAA-1680) [3]) of 64 µg/mL, an MIC (MRSA USA300 (BAA-1680) [3]) of 32 µg/mL and an MIC (MRSA 3865; MRSA) of 16 µg/mL. For the same compound, the MIC (MRSA 3823; MRSA) was 16 µg/mL, the “MBC of bacitracin with OG” value (MRSA 3903; MRSA 3903, 5 μg ml^−1 OG) was 10^−2 U and the MIC (MRSA 3903; MRSA) was 16 µg/mL. For the same compound, the “MBC of bacitracin with OG” value (MRSA 3799; MRSA 3799, 5 μg ml^−1 OG) was 10^−2 U, the MIC (MRSA 3799; MRSA) was 16 µg/mL and the MIC (MRSA 3095; MRSA) was 16 µg/mL. For the same compound, the MIC (MRSA 3A585; MRSA) was 16 µg/mL, the MIC (MRSA 3876; MRSA) was 16 µg/mL and the MIC (MRSA 3795; MRSA) was 16 µg/mL. The “membrane permeability, OG in the presence of bacitracin” value (USA300; OG plus bacitracin) was “more significantly increased membrane permeability than OG treatment without bacitracin; also recorded: significantly altered membrane permeability”, the membrane permeability (USA300; agent alone, sub-MIC levels, EDTA 1 mM) was “permeabilized the membrane in a concentration-dependent manner; also recorded: increased the membrane permeability” and the “killing of clinical MRSA isolates by OG plus bacitracin” value ([4]; FIG. 3) was “successfully killed all the tested clinical MRSA isolates; also recorded: effectively killed clinical MRSA isolates”. The “bacitracin level at which most strains were killed with OG” value ([4]; most clinical MRSA strains, 5 μg ml^−1 OG) was 10^−3 U.
CCCCCCCCCCCCOC(=O)c1cc(O)c(O)c(O)c1 [Lauryl gallate, lauryl gallate] was tested, and the “growth inhibition by bacitracin in combination with alkyl gallate” value (MRSA USA300 (BAA-1680) [1]) was “significant growth inhibition”, the MIC (MSSA (ATCC 29213); [6]) was 64 µg/mL and the “fold decrease of bacitracin MBC by antioxidant” value (MSSA (ATCC 29213); [7]) was > 1,000 fold. For the same compound, the MIC (MSSA (ATCC 29213)) was 128 µg/mL, the “synergistic effect with bacitracin” value (Escherichia coli O157:H7; E. coli O157:H7, FIG. 10) was “more moderate synergistic effects” and the MBC (Escherichia coli O157:H7) was 1020 µg/mL. For the same compound, the MIC (Escherichia coli O157:H7) was 512 µg/mL, the MBC [2] was greater than 1020 µg/mL and the MIC [2] was greater than 1020 µg/mL. For the same compound, the “synergistic effect with bacitracin” value ([2]; Salmonella, FIG. 10) was “more moderate synergistic effects”, the “growth of MRSA with bacitracin plus antioxidant” value ([5]; bacitracin 0.002 μg/mL, antioxidant 0.5 μg/mL, FIG. 6) was “significantly inhibited the growth of MRSA” and the “optical density of MRSA after 18 h culture: inhibition of growth in combination with bacitracin” value ([5]; bacitracin 0.002 μg/ml (ca. 0.0002 U), antioxidant 0.5 μg/ml, 18 h, FIG. 8) was “significantly inhibited MRSA”. The “concentration of lauryl gallate alone that inhibited MRSA growth” value ([5]; lauryl gallate 0.5 μg/mL to 256 μg/mL, FIG. 7C) was 256 µg/mL, the “MRSA growth inhibition by lauryl gallate in combination with bacitracin” value ([5]; lauryl gallate 0.5 μg/ml, bacitracin 0.0019 μg/mL to 1 μg/mL, FIG. 7D) was “synergistically inhibited MRSA growth” and the “MBC of bacitracin in combination with alkyl gallate” value (MRSA USA300 (BAA-1680) [3]) was 10^−1 U. For the same compound, the “fold decrease in bacitracin MBC” value (MRSA USA300 (BAA-1680) [3]) was 2,000 fold, the “bactericidal activity in combination with bacitracin” value (MRSA USA300 (BAA-1680) [3]) was “synergistic antimicrobial activity” and the MBC (MRSA USA300 (BAA-1680) [3]) was 64 µg/mL. For the same compound, the MIC (MRSA USA300 (BAA-1680) [3]) was 32 µg/mL, the “fold decrease of bacitracin MBC by antioxidant” value (MRSA (ATCC 33593); [7]) was 512 fold and the MIC (MRSA (ATCC 33593)) was 128 µg/mL. The MIC (MRSA (ATCC 33593); [6]) was 64 µg/mL, the MIC (MRSA 3865; MRSA 3865 (human/skin), read-out: MIC) was 64 µg/mL and the MIC (MRSA 3823; MRSA 3823 (human/nose), read-out: MIC) was 64 µg/mL. It also gave an MIC (MRSA 3903; MRSA 3903 (human/skin), read-out: MIC) of 64 µg/mL, an MIC (MRSA 3799; MRSA 3799 (human/nose), read-out: MIC) of 32 µg/mL and an MIC (MRSA 3095; MRSA 3095 (human/skin), read-out: MIC) of 64 µg/mL. The MIC (MRSA 3A585; MRSA 3A585 (human/blood), read-out: MIC) was 64 µg/mL, the MIC (MRSA 3876; MRSA 3876 (human/skin), read-out: MIC) was 64 µg/mL and the MIC (MRSA 3795; MRSA 3795 (human/nose), read-out: MIC) was 64 µg/mL. The biofilm formation (MRSA USA300) was “substantial reduction in the level of biofilm formation; also recorded: significant anti-biofilm effects”.

Reference: patent US10420815B2, “Combinational therapy for synergistic inhibition of gram-positive and gram-negative bacteria” (priority 2015, dated 2019)
